In US10654838B2, “Aminopyridine compounds useful as inhibitors of protein prenylation” (INSTITUT NATIONAL DE LA SANTE ET DE LA RECHERCHE MEDICALE …, priority 2014, dated 2020):

Key:
[1] = system: prelamin A; assay: Western immunoblotting of prelamin A; format: cell-based, human; conditions: HGPS MSCs, optimal concentration
Description: Whole-cell lysates of MSC were collected, separated by SDS-PAGE, and transferred onto PVPF membrane by liquid transfer method. Blots were blocked in 10% skim milk (Bio-Rad) in tween 0.1% tris-buffered saline (TTBS) 1× one hour at room temperature. The primary antibodies used were a mouse anti-lamins A/C 1:200 (Millipore, JOL2), a rabbit anti-prelamin A 1/100 (ANTOO45, Diatheva) and a β-actin 1/200000 (Sigma). Membranes were incubated during the night at 4° C. Antigen-antibody binding was detected using horseradish peroxidaseconjugated species-specific secondary antibodies (GE-Healthcare, Little Chalfont, UK) followed by enhanced chemiluminescence Western blotting detection reagents (Perkin-Elmer, Waltham, USA).

[2] = system: HDJ2; assay: Western blot analysis of HDJ2 farnesylation; format: cell-based, human
[3] = system: HGPS MSCs; assay: Nuclear shape abnormalities (lamin A/C immunostaining); format: cell-based, human; conditions: 48 h, lamin A/C staining
Description: In the 4-steps protocol, cells were fixed in 4% paraformaldehyde (15 minutes, room temperature) before permeabilization and blocking in PBS supplemented with 0.1% triton X-100 and 1% BSA (Sigma-Aldrich, St. Louis, USA). Primary antibodies were incubated one hour at room temperature in blocking buffer. Antibodies included mouse anti-lamins A/C (clone JOL2, Millipore, Billerica, USA), rabbit anti-prelamin A (ANTOO45, Diatheva) and anti-Ki67 (clone Ki-S5, MAB4190, Millipore, Billerica, USA). Cells were stained with the species-specific fluorophore-conjugated secondary antibody (Invitrogen) (one hour, room temperature) and nuclei were visualized with Hoechst 33342.

[4] = system: HGPS MSCs; assay: Live cell imaging (cell density); format: cell-based, human; conditions: 7 days
Description: HGPS MSCs were seeded at 2500 cells per well in 96-well plates and cultivated during 7 days in presence of the drugs. Cell density was monitored using an IncuCyte ZOOM microscope (Essen Bioscience). Each value corresponds to the mean of cell densities of four pictures taken in three independent wells.

[5] = target: T1, FT (Homo sapiens, UniProt P49354+P49356); assay: FT activity assay (Farnesyltransferase [3H] SPA); format: biochemical; conditions: concentration inducing 50% of the maximum inhibiting effect of the compound
T1 construct: Reactions were started by adding 40 μL of treated or untreated cell lysate; endogenous in cells; host or cells: HGPS MSCs (cell lysate)
Description: (§1) Cell pellet of HGPS MSCs were resuspended in 25 mM Tris-HCl pH 7.4, 1 mM DTT, 1 mM MgCl2, 1 EDTA, 1 mM PMSF and centrifuged at 10,000×g for 10 min at 4° C. Protein content was determined using Lowry's method. Aliquots of cell lysate containing 100 μg of total proteins were incubated with tested substances at 37° C. for 30 min.
FT activity was determined by Famesyltransferase [3H] SPA enzyme assay (Amersham Life Science, Buckinghamshire, England). Briefly, FT activity was assayed in 20 μl of assay buffer containing 50 mmol/L Hepes, 30 mmol/L MgCl2, 20 mmol/L KCl and 5 mmol/L dithiothreitol, 20 μl of [3H]-FPP (12 pmol) and 20 μl of biotin lamin B. Reactions were started by adding 40 μL of treated or untreated cell lysate and incubated for 1 hour at 37° C. Reactions were stopped by the addition of 150 μL of stop reagent containing SPA bead and counted in a scintillation counter. FT activity was expressed as pmoles of incorporated [3H]-FPP into biotin lamin-B peptide per minute per milligram of total proteins (pmol/min/mg prot). Parallel samples were assayed to evaluate the total and the nonspecific radioactivity. In all experiments enzyme assays were carried out in triplicate.

[6] = target: T2, HMGCR (Homo sapiens, UniProt P04035); assay: HMGCR colorimetric activity assay; format: biochemical
T2 construct: oxidation of NADPH by the catalytic subunit of HMGCR in the presence of the substrate HMG CoA; purchased Sigma-Aldrich
T2 sequence (P04035 340-888 limits assumed): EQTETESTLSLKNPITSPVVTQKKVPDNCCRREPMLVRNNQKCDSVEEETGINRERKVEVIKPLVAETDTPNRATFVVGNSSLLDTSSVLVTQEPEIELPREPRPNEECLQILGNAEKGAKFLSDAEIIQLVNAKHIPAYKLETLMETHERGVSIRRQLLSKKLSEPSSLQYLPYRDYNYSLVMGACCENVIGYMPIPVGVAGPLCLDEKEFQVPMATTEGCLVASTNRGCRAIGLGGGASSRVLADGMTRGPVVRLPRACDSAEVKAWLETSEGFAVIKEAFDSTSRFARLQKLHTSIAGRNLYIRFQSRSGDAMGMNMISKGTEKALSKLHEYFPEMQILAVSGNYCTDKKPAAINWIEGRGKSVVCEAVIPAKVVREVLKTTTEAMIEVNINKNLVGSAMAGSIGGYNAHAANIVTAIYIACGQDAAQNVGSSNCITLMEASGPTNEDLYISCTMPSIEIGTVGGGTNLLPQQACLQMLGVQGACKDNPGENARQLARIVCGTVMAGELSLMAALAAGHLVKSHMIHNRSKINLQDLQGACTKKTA
Description: HMGCR activity was measured using GCoA Reductase Assay Kit (Sigma-Aldrich) according to the manufacturer's protocol. The assay is based on the spectrophotometric measurement of the decrease in absorbance at 340 nm, which represents the oxidation of NADPH by the catalytic subunit of HMGCR in the presence of the substrate HMG CoA.

[7] = target: T3, FPPS (Homo sapiens, UniProt P14324); assay: FPPS activity assay; format: biochemical; set-up: endogenous in cells; host or cells: HGPS MSCs (cell lysate); conditions: concentration inducing 50% of the maximum inhibiting effect of the compound
T3 sequence (P14324 1-419): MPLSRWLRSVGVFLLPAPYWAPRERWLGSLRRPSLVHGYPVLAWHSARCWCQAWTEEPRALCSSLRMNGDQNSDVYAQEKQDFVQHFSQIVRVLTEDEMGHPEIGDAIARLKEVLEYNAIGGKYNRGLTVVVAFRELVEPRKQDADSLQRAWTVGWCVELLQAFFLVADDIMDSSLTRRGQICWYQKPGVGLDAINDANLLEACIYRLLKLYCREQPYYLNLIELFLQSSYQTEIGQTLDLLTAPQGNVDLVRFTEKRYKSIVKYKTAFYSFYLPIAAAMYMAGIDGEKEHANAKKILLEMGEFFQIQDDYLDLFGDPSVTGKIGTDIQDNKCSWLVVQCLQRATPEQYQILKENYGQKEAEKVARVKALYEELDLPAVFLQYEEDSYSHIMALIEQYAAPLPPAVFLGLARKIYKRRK
Description: as §1
FPPS assay was carried out with some modifications of the procedure of Krisans et al. (Krisans et al., 1994, The Journal of biological chemistry VOL. 269: 14165-14169) and described by Gupta et al. (Gupta et al., 1999, Eur J Med Chem, VOL. 43: 2751-2767). Briefly, FPPS was assayed in 150 μL containing 25 mmol/L Hepes, pH=7, 2 mmol/L MgCl2, 1 mmol/L dithiothreitol, 5 mmol/L KF, 1% A noctyl-β-glucopyranoside, 3.3 μmol/L [4-14C] IPP (18 Ci/mmol), 3 μmol/L unlabeled IPP and 20 μmol/L geranyl diphosphate. Reactions were started by adding 40 μL of treated or untreated cell lysate and incubated for 45 min at 37° C. Reactions were stopped by the addition of 150 μL 2.5 mol/L HCl in 80% ethanol containing 100 μg/mL farnesol as a carrier. The samples were hydrolyzed for 30 min at 37° C. to convert the FPP to farnesol and neutralized by the addition of 150 μL of 10% NaOH. The reaction product (farnesol) was extracted into 1 mL of N-hexane and an aliquot (200 μL) of the organic phase was used for radioactivity counting. Parallel samples were assayed to evaluate the total and the nonspecific radioactivity. In all experiments, enzyme assays were carried out in triplicate.

[8] = system: prelamin A farnesylation (nuclear localization of prelamin A) in HGPS MSCs; assay: Prelamin A localization cell-based assay; set-up: species or system human; conditions: for EC50: Homo sapiens, 48 h treatment, dose-response
Description: 2000 HGPS MSCs were plated in black 384-well clear-bottom plates (Corning). After 48 h of drug treatment, cells were fixed in 4% paraformaldehyde (15 minutes, room temperature). Permeabilization, blocking and primary hybridization steps were done concomitantly in a PBS solution supplemented with 0.1% triton X-100 and 1% BSA (Sigma-Aldrich, St. Louis, USA) and rabbit anti-prelamin A (ANTOO45, Diatheva) overnight at 4° C. Cells were stained with the species-specific fluorophore-conjugated secondary anti-rabbit antibody (Invitrogen) (one hour, room temperature) and nuclei were visualized with Hoechst 33342. These steps were automated using a washing/staining station (ELx405 Biotek, RapidStak Thermo, Multidrop Labsystems). Prelamin A localization was analyzed with an ayScan VTI HCS Reader (Cellomics). The first channel was used for nucleus identification (Hoechst 33342 staining) and the second one to identify prelamin A staining. Pictures were acquired with a 5× objective in high-resolution camera mode and were analyzed using the Spot Detector bioapplication. The robustness of the assay was evaluated using the Z′ factor calculated as ollows Z′=1−[3(SDP+SDN)/(MP−MN)] where MP and MN correspond to the means of the positive (tipifarnib 1 μM) and negative (DMSO 0.1%) controls, respectively, and SDP and SDN correspond to their standard deviation.
The primary screen was conducted on Biocell 1800 (Agilent). […]
Data analysis of the screening was performed using a customized Hiscreen application (Discngine, Paris, France) connected to Spotfire software (Tibco Co). Screening robustness was evaluated by calculating for each plate the Z'factor on the percentage of prelaminA nuclei parameter. […]
This study was performed on MSCs derived from HGPS iPS cells, differentiated as previously described (Blondel et al., 2014, Stem Cells Transl Med, VOL. 3: 510-519) and used after ten passages of amplification. […] A high throughput immunostaining assay was developed to robustly quantify prelamin A expression and localization in 384-well plates. […]

| Compound | unfarnesylated form of HDJ2 [2] | rescue of nuclear shape abnormalities [3] | EC50 [8] [nM] | also measured |
| --- | --- | --- | --- | --- |
| CCCc1c(C(=O)N2CCN(c3cc(N(C)c4cccc(C)c4)ncn3)CC2)cnn1-c1ccccc1 [Di-AP2, {4-[6-(Methyl-m-tolyl-amino)-pyrimidin-4-yl]-piperazin-1-yl}-(1-phenyl-5-propyl-1H-pyrazol-4-yl)-methanone] | increase of the unfarnesylated form of the protein | restored significantly | – | prelamin A level (Western blot) [1]: increased |
| N#CC(c1ccccn1)c1ccnc(N2CCC(O)(Cc3ccccc3)CC2)n1 (stereo not drawn) [Mono-AP3, [2-(4-Benzyl-4-hydroxy-piperidin-1-yl)-pyrimidin-4-yl]-pyridin-2-yl-acetonitrile] | increase of the unfarnesylated form of the protein | restoring HGPS MSCs nuclear shape defects at levels not significantly different from the FTI tipifarnib | – | cytostatic effect in long term live imaging cultures [4]: less cytostatic than the FTI tipifarnib; IC50 [5]: 0.35 µM; IC50 (μM) HMGCR [6]: No inhibition; IC50 [7]: 5.54 µM |
| Cc1cccc(CN2CCN(c3nccc(C(C#N)c4ccccn4)n3)CC2)c1 (stereo not drawn) [Mono-AP21, {2-[4-(3-Methyl-benzyl)-piperazin-1-yl]-pyrimidin-4-yl}-pyridin-2-yl-acetonitrile] | – | – | 1500 | – |
| CCOC(=O)CN1CCN(c2nccc(C(C#N)c3ccccn3)n2)CC1 (stereo not drawn) [Mono-AP25, {4-[4-(Cyano-pyridin-2-yl-methyl)-pyrimidin-2-yl]-piperazin-1-yl}-acetic acid ethyl ester] | – | – | – | efficiency on prelamin A farnesylation (in words) ([8]; dose response): decrease in efficiency |
| N#CC(c1ccccn1)c1ccnc(N2CCN(Cc3cccc(F)c3)CC2)n1 (stereo not drawn) [Mono-AP28, {2-[4-(3-Fluoro-benzyl)-piperazin-1-yl]-pyrimidin-4-yl}-pyridin-2-yl-acetonitrile] | – | – | 2000 | – |
